We go through 23 compounds from patent US20240317735A1, “HYDROISOQUINOLINE OR HYDRONAPHTHYRIDINE COMPOUNDS FOR THE TREATMENT OF AUTOIMMUNE DISEASE” (Hoffmann-La Roche Inc., priority 2020, published 2024).

The target of the assay is T1, human TLR7 (Homo sapiens, UniProt Q9NYK1).
T1 construct: host or cells: HEK293 (HEK-Blue hTLR7)
T1 sequence (Q9NYK1 27-1049): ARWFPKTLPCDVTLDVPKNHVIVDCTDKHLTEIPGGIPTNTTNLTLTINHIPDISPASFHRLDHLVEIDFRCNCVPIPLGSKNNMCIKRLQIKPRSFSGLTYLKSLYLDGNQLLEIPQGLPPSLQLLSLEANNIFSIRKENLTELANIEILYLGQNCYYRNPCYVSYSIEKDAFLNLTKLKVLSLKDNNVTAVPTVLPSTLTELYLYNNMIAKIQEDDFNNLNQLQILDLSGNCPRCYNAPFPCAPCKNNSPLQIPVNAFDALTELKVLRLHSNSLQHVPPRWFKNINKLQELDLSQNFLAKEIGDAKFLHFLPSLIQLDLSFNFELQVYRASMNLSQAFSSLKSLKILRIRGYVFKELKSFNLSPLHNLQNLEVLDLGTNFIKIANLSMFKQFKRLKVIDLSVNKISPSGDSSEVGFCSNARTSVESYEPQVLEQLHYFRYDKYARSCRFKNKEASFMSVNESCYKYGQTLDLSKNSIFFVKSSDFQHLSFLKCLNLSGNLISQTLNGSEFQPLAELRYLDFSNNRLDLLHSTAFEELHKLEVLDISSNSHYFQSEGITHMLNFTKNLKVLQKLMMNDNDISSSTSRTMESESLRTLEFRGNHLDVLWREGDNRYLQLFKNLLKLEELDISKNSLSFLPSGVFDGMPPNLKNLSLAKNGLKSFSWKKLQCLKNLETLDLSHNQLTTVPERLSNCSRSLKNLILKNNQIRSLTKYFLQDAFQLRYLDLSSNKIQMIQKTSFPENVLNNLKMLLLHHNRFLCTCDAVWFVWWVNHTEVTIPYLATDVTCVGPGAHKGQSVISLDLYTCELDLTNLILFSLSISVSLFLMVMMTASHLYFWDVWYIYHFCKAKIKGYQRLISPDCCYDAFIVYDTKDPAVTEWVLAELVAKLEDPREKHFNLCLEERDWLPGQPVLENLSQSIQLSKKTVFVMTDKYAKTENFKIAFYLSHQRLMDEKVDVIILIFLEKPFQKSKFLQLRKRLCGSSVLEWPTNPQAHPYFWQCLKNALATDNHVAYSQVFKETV
Briefly: HEK293-Blue-hTLR-7 cells assay (SEAP reporter, R848 stimulation). The settings on record: HEK293-Blue-hTLR7 cells, R848, 20 hrs; read-out: HEK/hTLR7 IC50. Format: cell-based. The procedure: The following tests were carried out in order to determine the activity of the compounds of formula (I) and (Ia) in HEK293-Blue-hTLR-7/8/9 cells assay.
A stable HEK293-Blue-hTLR-7 cell line was purchased from InvivoGen (Cat. #: hkb-htlr7, San Diego, California, USA). These cells were originally designed for studying the stimulation of human TLR7 by monitoring the activation of NF-κB. A SEAP (secreted embryonic alkaline phosphatase) reporter gene was placed under the control of the IFN-β minimal promoter fused to five NF-κB and AP-1-binding sites. The SEAP was induced by activating NF-κB and AP-1 via stimulating HEK-Blue hTLR7 cells with TLR7 ligands. Therefore the reporter expression w % as declined by TLR7 antagonist under the stimulation of a ligand, such as R848 (Resiquimod), for incubation of 20 hrs. The cell culture supernatant SEAP reporter activity was determined using QUANTI-Blue™ kit (Cat. #: rep-qb1, Invivogen, San Diego, Ca, USA) at a wavelength of 640 nm, a detection medium that turns purple or blue in the presence of alkaline phosphatase.
HEK293-Blue-hTLR7 cells were incubated at a density of 250,000˜450,000 cells/mL in a volume of 170 μL in a 96-well plate in Dulbecco's Modified Eagle's medium (DMEM) containing 4.5 g/L glucose, 50 U/mL penicillin, […], […] Normocin, 2 mM L-glutamine, 10% (v/v) heat-inactivated fetal bovine serum with addition of 20 μL test compound in a serial dilution in the presence of final DMSO at 1% and 10 μL of 20 uM R848 in above DMEM, perform incubation under 37° C. in a C02 incubator for 20 hrs. Then 20 μL of the supernatant from each well was incubated with 180 μL Quanti-blue substrate solution at 37° C. for 2 hrs and the absorbance was read at 620˜655 nm using a spectrophotometer. The signaling pathway that TLR7 activation leads to downstream NF-κB activation has been widely accepted, and therefore similar reporter assay was modified for evaluating TLR7 antagonist.
With `C[C@H]1CN(c2ccnc3c2cnn3C)Cc2ccc(N3CC4CNC[C@H]4C3=O)cc21` (relative stereo) [Example 17, cis-5-[(4R)-4-methyl-2-(1-methylpyrazolo[3,4-b]pyridin-4-yl)-3,4-dihydro-1H-isoquinolin-6-yl]-1,2,3,3a,6,6a-hexahydropyrrolo[3,4-c]pyrrol-4-one], the IC50 was found to be 8 nM. With `C[C@H]1CN(c2ccnc3c2cnn3C)Cc2ccc(N3C[C@@H]4CCNCC4C3=O)cc21` (relative stereo) [Example 55, cis-2-[(4R)-4-methyl-2-(1-methylpyrazolo[3,4-b]pyridin-4-yl)-3,4-dihydro-1H-isoquinolin-6-yl]-3a,4,5,6,7,7a-hexahydro-1H-pyrrolo[3,4-c]pyridin-3-one], the IC50 is 7 nM. Take `C[C@H]1CN(c2ccnc3c2cnn3C)Cc2ccc(N3C[C@@]4(CCNC4)CC3=O)cc21` (single isomer, unassigned) [Example 53]: the IC50 is 18 nM. Under `C[C@H]1CN(c2ccnc3c2cnn3C)Cc2ccc(N3C[C@]4(CCNC4)CC3=O)cc21` (single isomer, unassigned) [Example 54] stands 53 nM; under `C[C@H]1CN(c2ccnc3c2cnn3C)Cc2ccc(N3C[C@H]4CCNC[C@H]4C3=O)cc21` (single isomer, unassigned) [Example 56], 9 nM. Under `C[C@H]1CN(c2ccnc3c2cnn3C)Cc2ccc(N3C[C@@H]4CCNC[C@@H]4C3=O)cc21` (single isomer, unassigned) [Example 57] stands 8 nM; under `C[C@H]1CN(c2ccnc3c2cnn3C)Cc2ccc(N3CCNCC3)cc21` [Example 1, (4R)-4-methyl-2-(1-methylpyrazolo[3,4-b]pyridin-4-yl)-6-piperazin-1-yl-3,4-dihydro-1H-isoquinoline], 3 nM. Under `Cc1cc(N2Cc3ccc(N4CCNCC4)cc3[C@@H](C)C2)c2cnn(C)c2n1` [Example 2, (4R)-2-(1,6-dimethylpyrazolo[3,4-b]pyridin-4-yl)-4-methyl-6-piperazin-1-yl-3,4-dihydro-1H-isoquinoline] stands 8 nM. On to `Cn1ncc2c(N3CCc4cc(N5CCNCC5)ccc4C3)ccnc21` [Example 3, 2-(1-methylpyrazolo[3,4-b]pyridin-4-yl)-6-piperazin-1-yl-3,4-dihydro-1H-isoquinoline], for which the IC50 is 19 nM.

Turning to `CC1CN(c2ccnc3c2cnn3C)Cc2ccc(N3CCC4(CCNCC4)CC3)cc21` (centres unmarked) [Example 4, 3-[4-methyl-2-(1-methylpyrazolo[3,4-b]pyridin-4-yl)-3,4-dihydro-1H-isoquinolin-6-yl]-3,9-diazaspiro[5.5]undecane], the IC50 turned out to be 4 nM. In the case of `Cc1cc(N2Cc3ccc(N4CCC5(CCNCC5)CC4)cc3C(C)C2)c2cnn(C)c2n1` (centres unmarked) [Example 5, 3-[2-(1,6-dimethylpyrazolo[3,4-b]pyridin-4-yl)-4-methyl-3,4-dihydro-1H-isoquinolin-6-yl]-3,9-diazaspiro[5.5]undecane] it was 3 nM; in that of `Cn1ncc2c(N3Cc4ccc(N5CCC6(CCNCC6)CC5)cc4C(C)(C)C3)ccnc21` [Example 6, 3-[4,4-dimethyl-2-(1-methylpyrazolo[3,4-b]pyridin-4-yl)-1,3-dihydroisoquinolin-6-yl]-3,9-diazaspiro[5.5]undecane], 26 nM.

On to `C[C@H]1CN(c2ccnc3c2cnn3C)Cc2ccc(N3CCN(C(=O)C4CCNCC4)CC3)cc21` [Example 7, 4-piperidyl-[4-[(4R)-4-methyl-2-(1-methylpyrazolo[3,4-b]pyridin-4-yl)-3,4-dihydro-1H-isoquinolin-6-yl]piperazin-1-yl]methanone], for which the IC50 came to 18 nM. In the case of `C[C@H]1CN(c2ccnc3c2cnn3C)Cc2ccc(N3CCN(C(=O)C4CCCN4)CC3)cc21` (stereo partly drawn) [Example 8, pyrrolidin-2-yl-[4-[(4R)-4-methyl-2-(1-methylpyrazolo[3,4-b]pyridin-4-yl)-3,4-dihydro-1H-isoquinolin-6-yl]piperazin-1-yl]methanone] it was 6 nM; in that of `C[C@H]1CN(c2ccnc3c2cnn3C)Cc2ccc(N3CCN(c4cc5c(cn4)CCNC5)CC3)cc21` [Example 9, 7-[4-[(4R)-4-methyl-2-(1-methylpyrazolo[3,4-b]pyridin-4-yl)-3,4-dihydro-1H-isoquinolin-6-yl]piperazin-1-yl]-1,2,3,4-tetrahydro-2,6-naphthyridine], 7 nM; in that of `C[C@H]1CN(c2ccnc3c2cnn3C)Cc2ccc(N3CCC(N4CCNCC4)CC3)cc21` [Example 10, (4R)-4-methyl-2-(1-methylpyrazolo[3,4-b]pyridin-4-yl)-6-(4-piperazin-1-yl-1-piperidyl)-3,4-dihydro-1H-isoquinoline], 1 nM. For `CO[C@@H]1CN(C2CCN(c3ccc4c(c3)[C@@H](C)CN(c3ccnc5c3cnn5C)C4)CC2)C[C@H]1N` [Example 11, (3R,4R)-4-methoxy-1-[1-[(4R)-4-methyl-2-(1-methylpyrazolo[3,4-b]pyridin-4-yl)-3,4-dihydro-1H-isoquinolin-6-yl]-4-piperidyl]pyrrolidin-3-amine], the IC50 worked out at 2 nM. As to `C[C@H]1CN(c2ccnc3c2cnn3C)Cc2ccc(N3CCN(C(=O)C4CNCCO4)CC3)cc21` (stereo partly drawn) [Example 12, morpholin-2-yl-[4-[(4R)-4-methyl-2-(1-methylpyrazolo[3,4-b]pyridin-4-yl)-3,4-dihydro-1H-isoquinolin-6-yl]piperazin-1-yl]methanone], the IC50 worked out at 9 nM. Turning to `C[C@H]1CN(c2ccnc3c2cnn3C)Cc2ccc(N3CCC(O)(CN(C)C)CC3)cc21` [Example 13, 4-[(dimethylamino)methyl]-1-[(4R)-4-methyl-2-(1-methylpyrazolo[3,4-b]pyridin-4-yl)-3,4-dihydro-1H-isoquinolin-6-yl]piperidin-4-ol], the IC50 was 7 nM. In the case of `Cc1cc(N2Cc3ccc(N4CCC(O)(CN(C)C)CC4)cc3[C@@H](C)C2)c2cnn(C)c2n1` [Example 14, 4-[(dimethylamino)methyl]-1-[(4R)-2-(1,6-dimethylpyrazolo[3,4-b]pyridin-4-yl)-4-methyl-3,4-dihydro-1H-isoquinolin-6-yl]piperidin-4-ol] it was 8 nM; in that of `CC1CN(c2ccc3c(c2)[C@@H](C)CN(c2ccnc4c2cnn4C)C3)CCN1` (stereo partly drawn) [Example 15, (4R)-4-methyl-6-(3-methylpiperazin-1-yl)-2-(1-methylpyrazolo[3,4-b]pyridin-4-yl)-3,4-dihydro-1H-isoquinoline], 4 nM. In the case of `C[C@H]1CN(c2ccnc3c2cnn3C)Cc2ccc(N3CC4(CCNCC4)CC3=O)cc21` [Example 16, 2-[(4R)-4-methyl-2-(1-methylpyrazolo[3,4-b]pyridin-4-yl)-3,4-dihydro-1H-isoquinolin-6-yl]-2,8-diazaspiro[4.5]decan-3-one] it was 5 nM; in that of `C[C@H]1CN(c2ccnc3c2cnn3C)Cc2ccc(OC[C@H]3CNCCN3)cc21` [Example 18, (4R)-4-methyl-2-(1-methylpyrazolo[3,4-b]pyridin-4-yl)-6-[[(2R)-piperazin-2-yl]methoxy]-3,4-dihydro-1H-isoquinoline], 8 nM.
